# Results reported in patent publication US20260102400A1, “PHARMACEUTICAL COMPOSITION FOR DISRUPTING TUMOR BLOOD VESSELS” (SAMSUNG MEDICAL FOUNDATION, priority 2022, published 2026).
# “Also recorded” adds a separate entry of the source.
# Experiments:
# CD31 = CD31 immunohistochemical staining of gastric tumor mass after local injection; conditions: one week after injection
# HUVECs [1] = test: LDH release assay in HUVECs; format: cell-based, human; conditions: 1 mM, 5 mM and 10 mM 5-FU, P<0.05, FIG. 4
# Method: To investigate whether the administration of 5-fluorouracil (5-FU) enhances apoptosis in endothelial cells, an LDH release assay was conducted in human umbilical vein endothelial cells (HUVECs). Cytotoxicity was assessed based on the amount of lactate dehydrogenase (LDH) released due to cell membrane damage. The released LDH was quantified using an LDH assay kit (EZ-LDH1000; DoGenBio, Seoul, Korea) according to the manufacturer's protocol.
# HUVECs (5×10^4 cells/well) were seeded in a 96-well polystyrene plate and incubated at 37° C. for 24 hours. LDH substrate was added to each well, followed by an additional incubation at 37° C. for 10 minutes. The plate was centrifuged at 600 g for 5 minutes. A 10-μL aliquot of the supernatant was transferred from the culture plate wells to an analysis plate. Subsequently, 100 μL of LDH reaction mixture reagent was added to the supernatant in each well of the analysis plate. After a 30-minute reaction, absorbance was measured at 450 nm using a microplate reader (Model 680; Bio-Rad). The cytotoxicity of 5-FU on HUVECs was determined based on the amount of LDH released.
# [2] = Pathological changes in subcutaneous muscle layer after injection (H&E); format: in vivo, nude mice; parameters: key: 0=absent; 1=mild; 2=moderate; 3=severe; conditions: 5 mg pH 8.4 5-FU near the tumor; 24 hours; degeneration, necrosis, inflammation, fibrosis
# Method: To observe pathological changes in the surrounding tissue after injecting 5 mg of pH 8.4 5-FU near the tumor, the drug was locally administered to nude mice. After 24 hours, tissues, including muscle layers, were collected and subjected to H&E staining to examine degeneration, necrosis, inflammation, and fibrosis in the muscle layer. The extent of each pathological change was scored as follows: 0=absent, 1=mild, 2=moderate, 3=severe, and the results are shown in FIG. 10A and FIG. 10B. FIG. 10A presents observations at 40× magnification, while FIG. 10B presents observations at 100× magnification.
# TSP-1 protein = test: Western blot of TSP-1 protein expression in HUVEC; format: cell-based, human; conditions: HUVECs; prolonged exposure and higher 5-FU concentrations; FIG. 3
# Method: Western blot analysis was conducted to confirm the expression of TSP-1 protein in the HUVEC (human umbilical vein endothelial cell) cell line.
# HUVECs cultured in petri dishes were lysed using a buffer containing 50 mM Tris (pH 8.0), 150 mM NaCl, 1% Nonidet P-40, 0.5% sodium deoxycholate (SDC), 0.1% sodium dodecyl sulfate (SDS), and 1× protease inhibitor cocktail. The lysates were incubated on ice for 30 minutes, followed by centrifugation at 14,000 g for 10 minutes to collect the supernatant.
# Protein quantification was performed using a bicinchoninic acid (BCA) protein assay kit (Pierce Chemical, Rockford, IL, USA). A total of 30 μg of protein was subjected to electrophoresis on a 10% SDS-polyacrylamide gel and subsequently transferred onto a nitrocellulose membrane. The membrane was blocked with blocking milk for 1 hour, then incubated with the same TSP-1 antibody used for immunostaining at room temperature for 1 hour. After three washes with Tris buffer containing 0.1% Tween 20 at 15-minute intervals, the membrane was incubated with a secondary antibody specific to the primary antibody at room temperature for 1 hour. The detection was carried out using a chemiluminescent substrate (Amersham Life Science, Arlington Heights, IL, USA).
# Protein extracted from HUVECs was used as a positive control.
# HUVECs [3] = test: MTS cell proliferation assay, 5-FU at different pH; format: cell-based, human; conditions: 5 μM 5-FU, pH 6.4, 7.4, 8.4, 9.0, FIG. 5
# Method: To evaluate the cytotoxic effect of 5-fluorouracil (5-FU) in human umbilical vein endothelial cells (HUVECs) under different pH conditions, an MTS cell proliferation assay was performed. The cytotoxicity of 5 μM 5-FU at various pH levels in HUVECs was assessed using the CellTiter 96 AQueous One Solution Cell Proliferation Assay (Promega Corp., Madison, WI, USA).
# HUVECs were seeded in a 96-well plate at a density of 5×10^3 cells/well and incubated for 24 hours. Subsequently, the cells were cultured for an additional 24 hours in Dulbecco's Modified Eagle's Medium (DMEM) containing 5-FU at different pH conditions (pH 6.4, 7.4, 8.4, and 9.0). Following the incubation, the cells were washed twice with phosphate-buffered saline (PBS), after which 100 μL of fresh DMEM growth medium was added, followed by an additional 48-hour incubation. The medium was then replaced with 100 μL of fresh DMEM growth medium, and 20 μL of 3-(4,5-dimethylthiazol-2-yl)-5-(3-carboxymethoxyphenyl)-2-(4-sulfophenyl)-2H-tetrazolium (MTS) solution (Promega Corp., Madison, WI, USA) was added. After an additional 2-hour incubation, the absorbance was measured at 490 nm using a microplate reader (Model 680, BIO-RAD; Spark, TECAN, CA, USA).
# VEGF = VEGF immunohistochemical staining of gastric tumor mass after local injection; conditions: one week after injection
# HUVECs [4] = conditions: various concentrations of L-NMMA, FIG. 11
# Method: HUVECs were seeded at a density of 5×10^3 cells/well in a 96-well plate and incubated for 24 hours. Subsequently, the cells were incubated in DMEM medium containing various concentrations of L-NMMA for 24 hours. The cells were then washed twice with PBS, followed by the addition of 100 μL of fresh growth DMEM medium, and incubated for an additional 48 hours. The medium was replaced with 100 μL of fresh growth DMEM medium, after which 20 μL of 3-(4,5-dimethylthiazol-2-yl)-5-(3-carboxymethoxyphenyl)-2-(4-sulfophenyl)-2H-tetrazolium (MTS) was added. After an additional 2-hour incubation, absorbance at 490 nm was measured using a BIO-RAD Model 680 microplate reader (Spark, TECAN, CA, USA).
# [5] = tested on: human gastric cancer cells; test: Human gastric cancer xenograft, alkaline 5-FU injected adjacent to tumor; format: in vivo, nude mice; conditions: 5 mg 5-FU pH 8.4, adjacent to tumor, three times at one-week intervals; P<0.05
# Method: The animals used in the experiment were six male nude mice (Crj: BALB/c-nu/nu mice, male) aged five weeks and weighing approximately 30 grams, purchased from Orient. The mice were subjected to a one-week acclimation period in the laboratory before use. Each nude mouse was subcutaneously xenografted with 5×10^6 human gastric cancer cells suspended in 100 μL of PBS on the dorsal subcutaneous layer. The tumor size was periodically measured, and when it reached a diameter of 1 cm, the drug administration experiment was conducted.
# The experimental animals were divided into two groups. One group served as the control group, receiving only physiological saline, while the other group was administered 5 mg of 5-FU at pH 8.4. The drug was injected 0.2 cc adjacent to the tumor three times at one-week intervals. After one month, the major and minor axes of the tumors growing on the dorsal epidermis were measured.
# [6] = tested on: human gastric cancer cells; test: Human gastric cancer xenograft, bevacizumab; format: in vivo, nude mice
# Method: The animals used in the experiment were three male nude mice (Crj: BALB/c-nu/nu, male), each weighing approximately 30 g and five weeks old, produced by Orient. The mice underwent a one-week acclimatization period in the laboratory before use. Human gastric cancer cells (5×10^6 cells/100 μL in PBS) were xenografted into the subcutaneous fat layer on the dorsal side of each nude mouse. The tumor size was measured periodically, and drug administration was initiated when the tumor reached a diameter of 1 cm.
# The experimental animals were administered 1 mg of bevacizumab by injecting 0.2 cc adjacent to the tumor three times at one-week intervals.
# [7] = 5 mg 5-FU at base of tumor, relative to total tissue area
compound,measurement,setting,value
"O=c1[nH]cc(F)c(=O)[nH]1 [5-FU, 5-fluorouracil]",Immunopositive area (CD31),CD31; 5 mg 5-FU at base of tumor,257079.525 μm^2
same,Immuno-positive area (%) (CD31),CD31; [7],0.54%
same,stained area (ratio) of CD31 compared to control group,CD31; 5 mg 5-FU,lower; also recorded: smaller
same,distribution of necrotic tissue compared to control group,"CD31; 5 mg 5-FU, tumor mass",increased
same,amount of LDH released,HUVECs [1],increased in a time-dependent manner
same,pathological changes in subcutaneous muscle layer at injection site (score),[2],0
same,TSP-1 expression,TSP-1 protein,increased
same,cytotoxic effect according to pH,HUVECs [3],significantly greater toxicity under alkaline conditions compared to neutral or acidic 5-FU
same,Immunopositive area (VEGF),VEGF; 5 mg 5-FU at base of tumor,46077.917 μm^2
same,Immuno-positive area (%) (VEGF),VEGF; [7],0.10%
same,stained area of VEGF compared to control group,VEGF; 5 mg 5-FU,smaller
"CNC(=N)NCCC[C@H](N)C(=O)O [L-NMMA, NG-Monomethyl-L-arginine]","cell viability, L-NMMA alone",HUVECs [4],reduction in cell viability
"O=c1[nH]cc(F)c(=O)[nH]1 [alkaline 5-FU, 5-fluorouracil]",tumor size compared to control group that received PBS,[5],reduced
same,tumor size four weeks after drug administration compared to before injection,[5],decreased
bevacizumab: recombinant humanized monoclonal antibody designed to inhibit vascular endothelial growth factor (VEGF),tumor size four weeks after drug administration compared to before injection,"[6]; 1 mg bevacizumab adjacent to tumor, three times at one-week intervals, P>0.05",remained nearly unchanged
same,tumor size in later follow-up,"[6]; 1 mg bevacizumab, months after the four-week reading",did not change for the following two months and began to increase in the third month
